Results on 12 compounds are retold here after ChEMBL document CHEMBL1201862, “PubChem BioAssay data set” (2004).

The term GI50 denotes the concentration giving 50% growth inhibition.

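These data come from cells grown in 96-well plates and exposed to compound for 48 hours at five concentrations. GI50 marks 50% less growth.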 The source made the active and inactive calls. No stated cut-off is given here; in the data, active = GI50 up to about 1.1 µM and inactive = higher.

Holding throughout (test): DTP human tumour cell line panel, 48 h
Experiment [1] has as its system A498.
In experiment [2] the test system is HCT-116.
Experiment [3] relates to NCI-H23.
The subject of experiment [4] is ACHN.
Experiment [5] deals with NCI-H460.
The subject of experiment [6] is SN12C.
Experiment [7] has as its system KM12.
In experiment [8] the test system is CAKI-1.
The subject of experiment [9] is MCF7.
Experiment [10] deals with UACC-62.
Experiment [11] relates to NCI/ADR-RES.
Experiment [12] concerns T47D.
Experiment [13] concerns UACC-257.
Experiment [14] relates to HCC 2998.
Experiment [15] concerns RXF 393.
For experiment [16], the system named is SR.
Experiment [17] relates to SK-MEL-28.
The test system of experiment [18] is OVCAR-3.
The subject of experiment [19] is BT-549.

`CCSc1cc2c(cc1O)CC[C@@H]1[C@@H]2CC[C@]2(C)[C@@H](O)CC[C@@H]12`: the GI50 was 15.6 µM (inactive) in [1]; 8.57 µM (inactive) in experiment [2]; 18.8 µM (inactive) in [3]; 11.3 µM (inactive) in experiment [4]; 6.68 µM (inactive) in [5]; 17.7 µM (inactive) in experiment [6]. In addition, the GI50 in experiment [7] is 8.11 µM (inactive); in experiment [8] it was 12.6 µM (inactive); in experiment [9], 10.3 µM (inactive); in experiment [10] it was 11.2 µM (inactive); in experiment [11], 5.18 µM (inactive); in [12], > 10 µM (inactive). In addition, the GI50 in experiment [13] is 15.1 µM (inactive); in [14] it was 13.9 µM (inactive); in experiment [15] it was 21.5 µM (inactive); in experiment [16], 4.88 µM (inactive); in experiment [17], 14.2 µM (inactive).
Turning to `N#CCSc1c(-c2ccccc2)c(=O)n(-c2ccccc2)c(=S)n1-c1ccccc1`, the GI50 in experiment [18], in experiment [2], in experiment [3], in experiment [4], in experiment [5] and in experiment [6] was > 100 µM (inactive) in each case. Besides, the GI50 in experiment [7] is > 100 µM (inactive); in experiment [8], > 100 µM (inactive); in experiment [9], > 100 µM (inactive); in [10] it was 32.9 µM (inactive); in [11], > 100 µM (inactive); in experiment [12] it was > 100 µM (inactive). Besides, the GI50 in [13], in experiment [16] and in experiment [17] was > 100 µM (inactive) each time.
Consider `CN1C/C(=C\c2ccc(Cl)cc2)C(=O)/C(=C/c2ccc(Cl)cc2)C1`, for which the GI50 in [18] was 1.63 µM (inactive); in experiment [1], 1.55 µM (inactive); in experiment [2], 0.208 µM (active); in experiment [3] it was 2.44 µM (inactive); in experiment [4] it was 3.15 µM (inactive); in experiment [5], 1.17 µM (inactive). For the same compound, the 50% growth inhibitory concentration (GI50) is 0.771 µM (active) in experiment [6]; 0.774 µM (active) in [7]; 1.3 µM (inactive) in [8]; 0.453 µM (active) in [9]; 2.22 µM (inactive) in experiment [10]; 1.37 µM (inactive) in experiment [11]. The GI50 in experiment [12] was 4.48 µM (inactive); in experiment [13], 0.443 µM (active); in [14] it was 2.33 µM (inactive); in experiment [15], 0.834 µM (active); in experiment [16], 0.323 µM (active); in [17], 3.78 µM (inactive).
As for `Cn1[nH]nn/c1=N\N=C\c1ccccc1`, the GI50 in experiment [18], in [2], in experiment [3], in [4], in experiment [5] and in experiment [6] was > 10 µM (inactive) throughout. For the same compound, the GI50 in experiment [7], in experiment [8], in experiment [9], in experiment [10], in [11] and in experiment [12] was > 10 µM (inactive) each time. Besides, the GI50 in [13], in experiment [14], in experiment [15], in [16] and in experiment [17] was > 10 µM (inactive) each time.
With `O=c1ccn(C2OC(CO)C(O)C2F)c(=O)n1Cc1ccccc1` (stereo not drawn), the GI50 in [18] is > 100 µM (inactive); in experiment [2], > 100 µM (inactive); in [3] it was > 100 µM (inactive); in experiment [4] it was > 100 µM (inactive); in experiment [5] it was > 10 µM (inactive); in [6], > 100 µM (inactive). The GI50 in experiment [7], in [8], in experiment [9], in [10], in experiment [11] and in [12] was > 100 µM (inactive) throughout. Further, the GI50 in experiment [13], in [15], in experiment [16] and in experiment [17] was > 100 µM (inactive) throughout.
For `CSc1nc(Br)nc2c1ncn2C1CC(Oc2ccc(C)cc2)C(COc2ccc(C)cc2)O1` (stereo not drawn), the GI50 was > 100 µM (inactive) in [18]; > 100 µM (inactive) in experiment [1]; > 100 µM (inactive) in experiment [2]; 40.8 µM (inactive) in experiment [3]; 33.7 µM (inactive) in experiment [4]; > 100 µM (inactive) in [5]. Also, the GI50 in experiment [6], in experiment [7], in [8], in experiment [9], in [10] and in [19] was > 100 µM (inactive) in each case. For the same compound, the GI50 in experiment [11], in [12], in experiment [13], in experiment [14] and in [17] was > 100 µM (inactive) in each case.
On to `O=C(NCCCl)NCc1ccccc1`, for which the GI50 was > 100 µM (inactive) in [18]; > 100 µM (inactive) in experiment [1]; > 100 µM (inactive) in experiment [2]; > 100 µM (inactive) in experiment [3]; > 100 µM (inactive) in experiment [4]; 52.5 µM (inactive) in experiment [5]. In addition, the GI50 in experiment [6], in experiment [7], in experiment [8], in [9], in [10] and in experiment [11] was > 100 µM (inactive) each time. Further, the GI50 in experiment [12], in [13], in [14], in experiment [15], in [16] and in experiment [17] was > 100 µM (inactive) each time.
As for `NC(=O)c1ccc(NS(=O)(=O)c2ccc(N)cc2)nc1`, the GI50 in experiment [18], in experiment [1], in [2], in experiment [3], in experiment [4] and in [5] was > 100 µM (inactive) in each case. For the same compound, the GI50 in experiment [6], in experiment [7], in experiment [8], in experiment [9], in experiment [10] and in [19] was > 100 µM (inactive) in each case. The GI50 in [11], in experiment [12], in experiment [13], in [14] and in experiment [17] was > 100 µM (inactive) each time.
Regarding `COC(=O)[C@@H]1CN(C(C)=O)C(=O)N1`, the GI50 in experiment [18], in [1], in [2], in [3], in experiment [4] and in experiment [5] was > 100 µM (inactive) each time. The GI50 in [6] was > 100 µM (inactive); in experiment [7] it was > 100 µM (inactive); in experiment [8], > 100 µM (inactive); in experiment [10], > 100 µM (inactive); in experiment [11] it was > 100 µM (inactive); in experiment [12], 43.9 µM (inactive). Moreover, the GI50 in experiment [13], in [14], in experiment [15] and in experiment [17] was > 100 µM (inactive) each time.
As to `CC(=O)Nc1ccc(/C=C2/NC(=S)N(/C=C3\C(=O)Oc4ccccc4C3=O)C2=O)cc1`, the GI50 in experiment [18] is 24 µM (inactive); in experiment [1] it was 87.5 µM (inactive); in [2], 52.7 µM (inactive); in experiment [3], 67.3 µM (inactive); in [4], > 100 µM (inactive); in experiment [5], 35.6 µM (inactive). Further, the GI50 in experiment [6] was 94.6 µM (inactive); in experiment [7], 45.2 µM (inactive); in experiment [8] it was 49.5 µM (inactive); in [9], > 100 µM (inactive); in experiment [10] it was 77.3 µM (inactive); in experiment [11], 33.7 µM (inactive). In addition, the GI50 in experiment [12] is 64.3 µM (inactive); in experiment [13], > 100 µM (inactive); in experiment [14] it was 43.2 µM (inactive); in [15], > 100 µM (inactive); in experiment [16], 39.3 µM (inactive); in [17] it was 85.7 µM (inactive).
As to `CSc1nc(Nc2ccccc2Cl)c2c(N)nn(C)c2n1`, the GI50 in [18] was > 100 µM (inactive); in [1], > 100 µM (inactive); in experiment [2], > 100 µM (inactive); in experiment [3], > 100 µM (inactive); in experiment [4], 13.1 µM (inactive); in [5], 9.51 µM (inactive). The GI50 in experiment [6] is > 100 µM (inactive); in [7], > 100 µM (inactive); in experiment [8] it was > 100 µM (inactive); in experiment [10], > 100 µM (inactive); in experiment [19], > 100 µM (inactive); in experiment [11] it was 69.5 µM (inactive). Also, the GI50 in experiment [12] was 18.7 µM (inactive); in [13] it was > 100 µM (inactive); in experiment [14], > 100 µM (inactive); in experiment [15], 47.2 µM (inactive); in experiment [17] it was > 100 µM (inactive).
On to `CCC1(O)CC(OC2CC(N(C)C)C(OC3CC(O)C(OC4OC(C)C(=O)C=C4N)C(C)O3)C(C)O2)c2c(O)c3c(c(O)c2C1C(=O)OC)C(=O)c1cccc(O)c1C3=O` (stereo not drawn), for which the GI50 in [18] is 0.0225 µM (active); in experiment [1], 0.00105 µM (active); in experiment [2] it was 0.000617 µM (active); in experiment [3], 0.0189 µM (active); in experiment [4], 0.00418 µM (active); in [5], 0.000452 µM (active). The GI50 in [6] is 0.0259 µM (active); in [7], 0.0032 µM (active); in experiment [8], 0.00489 µM (active); in [9] it was 0.002 µM (active); in [10], 0.0106 µM (active); in experiment [11] it was 0.0916 µM (active). Further, the GI50 in experiment [12] was 0.0118 µM (active); in experiment [13], 0.00836 µM (active); in experiment [14], 0.0302 µM (active); in [16], 0.00413 µM (active); in [17], 0.0105 µM (active).
